Key:
[1] = target: T1, Vasoactive intestinal polypeptide receptor 1 (Homo sapiens, UniProt P32241); assay type: cell membranes, Membrane; conditions: ht-29; further: in other assays of this panel Not Active means under 50% inhibition at 10 µM
T1 sequence (P32241 whole entry): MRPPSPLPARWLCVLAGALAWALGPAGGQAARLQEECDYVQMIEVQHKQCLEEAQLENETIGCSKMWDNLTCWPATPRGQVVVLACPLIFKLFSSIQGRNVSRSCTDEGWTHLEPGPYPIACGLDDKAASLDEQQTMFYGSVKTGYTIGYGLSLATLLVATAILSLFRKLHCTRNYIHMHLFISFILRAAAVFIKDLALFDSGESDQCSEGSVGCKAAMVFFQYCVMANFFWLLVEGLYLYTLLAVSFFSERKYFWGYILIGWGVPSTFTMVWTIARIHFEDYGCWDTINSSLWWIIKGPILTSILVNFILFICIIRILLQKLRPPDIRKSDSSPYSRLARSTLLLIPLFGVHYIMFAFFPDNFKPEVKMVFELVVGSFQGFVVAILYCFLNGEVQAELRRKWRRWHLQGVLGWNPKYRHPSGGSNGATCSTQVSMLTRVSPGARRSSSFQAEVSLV

[2] = target: T2, Substance-K receptor (Homo sapiens, UniProt P21452); assay type: cell membranes, CHO, Membrane; conditions: cho; further: in other assays of this panel Not Active means under 50% inhibition at 10 µM
T2 sequence (P21452 whole entry): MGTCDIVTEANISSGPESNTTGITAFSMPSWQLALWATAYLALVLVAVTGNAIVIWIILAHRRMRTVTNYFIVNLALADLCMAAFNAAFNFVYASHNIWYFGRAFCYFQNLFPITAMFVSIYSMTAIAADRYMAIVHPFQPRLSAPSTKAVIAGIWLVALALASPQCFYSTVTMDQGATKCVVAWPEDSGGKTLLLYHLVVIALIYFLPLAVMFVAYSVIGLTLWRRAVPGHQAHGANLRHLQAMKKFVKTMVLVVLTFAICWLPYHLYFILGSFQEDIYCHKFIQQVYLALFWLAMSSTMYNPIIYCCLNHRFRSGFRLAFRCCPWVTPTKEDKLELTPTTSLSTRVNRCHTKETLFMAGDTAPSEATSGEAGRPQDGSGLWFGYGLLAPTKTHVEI

[3] = target: T3, Adenosine receptor A3 (Homo sapiens, UniProt P0DMS8); assay type: cell membranes, CHO-K1, Membrane; conditions: cho-k1;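 further: radioligand binding assay with AB-MECA serving as the labeled ligand; in other assays of this panel Not Active means under 50% inhibition at 10 µM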
T3 sequence (P0DMS8 whole entry): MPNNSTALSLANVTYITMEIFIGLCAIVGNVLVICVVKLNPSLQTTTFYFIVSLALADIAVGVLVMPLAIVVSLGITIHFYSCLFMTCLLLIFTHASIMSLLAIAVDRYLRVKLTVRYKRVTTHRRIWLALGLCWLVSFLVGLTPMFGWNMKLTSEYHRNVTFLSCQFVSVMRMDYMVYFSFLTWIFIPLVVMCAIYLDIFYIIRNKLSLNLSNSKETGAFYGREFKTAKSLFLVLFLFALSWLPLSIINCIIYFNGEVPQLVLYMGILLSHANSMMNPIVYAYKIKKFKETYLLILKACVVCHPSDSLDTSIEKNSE

[4] = DRUGMATRIX: Phosphodiesterase PDE4 enzyme inhibition (substrate: [3H]cAMP + cAMP); conditions: u-937; Not Active = under 50% inhibition at 10 µM
[5] = DRUGMATRIX: Platelet-Derived Growth Factor (PDGF) radioligand binding (ligand: [125I] PDGF); assay type: cell-based; conditions: nih3t3; Not Active = under 50% inhibition at 10 µM
[6] = DRUGMATRIX: Calcium Channel Type L, Phenylalkylamine radioligand binding (ligand: [3H] (-)-Desmethoxyverapamil (D-888)); assay type: cell membranes, Rattus norvegicus, Wistar, Brain, Membrane; conditions: Not Active = under 50% inhibition at 10 µM
[7] = target: T4, C-X-C chemokine receptor type 2 (Homo sapiens, UniProt P25025); assay type: cell membranes, Membrane; conditions: cho-k1; further: in other assays of this panel Not Active means under 50% inhibition at 10 µM
T4 sequence (P25025 whole entry): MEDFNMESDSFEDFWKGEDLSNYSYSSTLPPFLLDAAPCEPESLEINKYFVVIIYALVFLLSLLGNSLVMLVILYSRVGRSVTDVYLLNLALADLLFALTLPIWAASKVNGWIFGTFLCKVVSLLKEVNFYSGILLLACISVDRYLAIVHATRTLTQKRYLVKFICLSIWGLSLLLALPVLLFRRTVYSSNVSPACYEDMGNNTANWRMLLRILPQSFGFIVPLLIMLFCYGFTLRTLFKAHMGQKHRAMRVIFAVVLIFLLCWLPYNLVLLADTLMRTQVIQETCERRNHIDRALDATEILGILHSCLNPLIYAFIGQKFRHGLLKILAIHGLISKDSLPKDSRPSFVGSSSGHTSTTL

[8] = target: T5, Neuropeptide Y receptor type 1 (Homo sapiens, UniProt P25929); assay type: cell membranes, Membrane; conditions: sk-n-mc; further: in other assays of this panel Not Active means under 50% inhibition at 10 µM
T5 sequence (P25929 whole entry): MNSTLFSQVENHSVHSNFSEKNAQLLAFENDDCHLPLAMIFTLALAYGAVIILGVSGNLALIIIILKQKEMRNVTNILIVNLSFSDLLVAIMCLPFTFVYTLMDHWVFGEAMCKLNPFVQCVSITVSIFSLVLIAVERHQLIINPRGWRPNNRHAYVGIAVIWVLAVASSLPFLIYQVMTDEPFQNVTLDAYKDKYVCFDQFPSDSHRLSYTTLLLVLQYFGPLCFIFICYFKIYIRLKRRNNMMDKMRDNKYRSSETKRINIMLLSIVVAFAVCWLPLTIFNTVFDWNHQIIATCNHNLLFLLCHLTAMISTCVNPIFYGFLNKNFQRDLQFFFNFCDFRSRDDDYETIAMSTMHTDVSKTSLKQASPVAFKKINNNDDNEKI

[9] = target: T6, 5-hydroxytryptamine receptor 1A (Rattus norvegicus, UniProt P19327); assay type: cell membranes, CHO-K1, Membrane; conditions: cho-k1; further: in other assays of this panel Not Active means under 50% inhibition at 10 µM
T6 sequence (P19327 whole entry): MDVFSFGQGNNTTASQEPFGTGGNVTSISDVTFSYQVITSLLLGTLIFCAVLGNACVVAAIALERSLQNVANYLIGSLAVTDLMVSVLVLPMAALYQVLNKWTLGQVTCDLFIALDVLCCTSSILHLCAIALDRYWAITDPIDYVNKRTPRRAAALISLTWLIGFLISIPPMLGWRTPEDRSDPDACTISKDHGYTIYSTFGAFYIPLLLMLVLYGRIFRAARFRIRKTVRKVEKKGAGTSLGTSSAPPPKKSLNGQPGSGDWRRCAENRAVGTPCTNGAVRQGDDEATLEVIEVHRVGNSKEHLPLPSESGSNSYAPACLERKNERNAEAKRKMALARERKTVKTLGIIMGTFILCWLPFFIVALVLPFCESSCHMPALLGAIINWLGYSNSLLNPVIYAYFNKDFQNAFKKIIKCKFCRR

[10] = DRUGMATRIX: Serotonin (5-Hydroxytryptamine) 5-HT3 radioligand binding (ligand: [3H] GR-65630); assay type: cell membranes, Membrane; conditions: hek293; Not Active = under 50% inhibition at 10 µM

Brc1ccccc1 [BROMOBENZENE]
Not Active: IC50 [1] | IC50 [2] | IC50 [3] | IC50 [4] | Ki [4] | IC50 [5] | Ki [5] | IC50 [6] | Ki [6] | IC50 [7] | IC50 [8] | IC50 [9] | IC50 [10] | Ki [10]

COc1ccc2cc(CC(=O)O)ccc2c1
Not Active: IC50 [1] | IC50 [2] | IC50 [3] | IC50 [4] | Ki [4] | IC50 [5] | Ki [5] | IC50 [6] | Ki [6] | IC50 [7] | IC50 [8] | IC50 [9] | IC50 [10] | Ki [10]

CC[N+](CC)(CC)CCOc1cccc(OCC[N+](CC)(CC)CC)c1OCC[N+](CC)(CC)CC.[I-].[I-].[I-] [GALLAMINE TRIETHIODIDE]
Not Active: IC50 [1] | IC50 [2] | IC50 [3] | IC50 [4] | Ki [4] | IC50 [5] | Ki [5] | IC50 [6] | Ki [6] | IC50 [7] | IC50 [8] | IC50 [9] | IC50 [10] | Ki [10]

CCCSc1ccc2nc(NC(=O)OC)[nH]c2c1 [ALBENDAZOLE]
Not Active: IC50 [1] | IC50 [2] | IC50 [3] | IC50 [4] | Ki [4] | IC50 [5] | Ki [5] | IC50 [6] | Ki [6] | IC50 [7] | IC50 [8] | IC50 [9] | IC50 [10] | Ki [10]

OCc1ccccc1 [BENZYL ALCOHOL]
Not Active: IC50 [1] | IC50 [2] | IC50 [3] | IC50 [4] | Ki [4] | IC50 [5] | Ki [5] | IC50 [6] | Ki [6] | IC50 [7] | IC50 [8] | IC50 [9] | IC50 [10] | Ki [10]

CC1(C)[C@@H](O[C@H]2O[C@H](C(=O)O)[C@@H](O)[C@H](O)[C@H]2O[C@@H]2O[C@H](C(=O)O)[C@@H](O)[C@H](O)[C@H]2O)CC[C@]2(C)[C@H]3C(=O)C=C4[C@@H]5C[C@@](C)(C(=O)O)CC[C@]5(C)CC[C@@]4(C)[C@]3(C)CC[C@@H]12 [GLYCYRRHIZIN]
Not Active: IC50 [1] | IC50 [2] | IC50 [3] | IC50 [4] | Ki [4] | IC50 [5] | Ki [5] | IC50 [6] | Ki [6] | IC50 [7] | IC50 [8] | IC50 [9] | IC50 [10] | Ki [10]

O=P1(NCCCl)OCCCN1CCCl (stereo not given) [IFOSFAMIDE]
Not Active: IC50 [1] | IC50 [2] | IC50 [3] | IC50 [4] | Ki [4] | IC50 [5] | Ki [5] | IC50 [6] | Ki [6] | IC50 [7] | IC50 [8] | IC50 [9] | IC50 [10] | Ki [10]

CCc1cccc2c3c([nH]c12)C(CC)(CC(=O)O)OCC3 (stereo not given) [ETODOLAC]
Not Active: IC50 [1] | IC50 [2] | IC50 [3] | IC50 [4] | Ki [4] | IC50 [5] | Ki [5] | IC50 [6] | Ki [6] | IC50 [7] | IC50 [8] | IC50 [9] | IC50 [10] | Ki [10]

COCc1c(C(C)C)nc(C(C)C)c(/C=C/[C@@H](O)C[C@@H](O)CC(=O)O)c1-c1ccc(F)cc1 [CERIVASTATIN]
Not Active: IC50 [1] | IC50 [2] | IC50 [3] | IC50 [4] | Ki [4] | IC50 [5] | Ki [5] | IC50 [6] | Ki [6] | IC50 [7] | IC50 [8] | IC50 [9] | IC50 [10] | Ki [10]

CC1(C)S[C@@H]2[C@H](NC(=O)[C@H](N)c3ccc(O)cc3)C(=O)N2[C@H]1C(=O)O [AMOXICILLIN]
Not Active: IC50 [1] | IC50 [2] | IC50 [3] | IC50 [4] | Ki [4] | IC50 [5] | Ki [5] | IC50 [6] | Ki [6] | IC50 [7] | IC50 [8] | IC50 [9] | IC50 [10] | Ki [10]

From ChEMBL document CHEMBL1909046, “DrugMatrix in vitro pharmacology data”
